According to EPA's ToxRefDB 2:

Assays:
[1] = system: rat; conditions: Multigenerational reproductive toxicity study, other, Oral, Feed, dose end: 2 generation
[2] = system: mouse; conditions: Carcinogenicity; cd1; Oral; [Not Specified]; dose end: 79 week; group: systemic; systemic / hematology / erythrocyte (rbc) count differential / erythrocyte (rbc) + systemic / hematology / hematocrit (hct) / hematocrit (…
[3] = system: dog; conditions: Chronic toxicity; beagle; Oral; Capsule; dose end: 52 week; group: systemic; systemic / clinical chemistry / alkaline phosphatase (alp/alk) / alkaline phosphatase (alp/alk) + systemic / hematology / blood clotting / …
[4] = system: rat; conditions: Subchronic oral toxicity in rodents, sprague dawley, Feed, dose end: 90 day, group: systemic
[5] = system: rat; conditions: Subchronic oral toxicity in rodents, other, Feed, dose end: 13 week
[6] = system: rat; conditions: Combined chronic toxicity/carcinogenicity, sprague dawley, Oral, Feed, dose end: 106 week, group: systemic
[7] = system: dog; conditions: Subchronic oral toxicity in nonrodent, beagle, Capsule, dose end: 13 week, group: systemic, systemic / hematology / blood clotting / blood clotting - activated partial thromboplastin time
[8] = system: rat; conditions: Fertility (Segment I), Oral, Gavage/Intubation, dose end: 1 generation
[9] = system: rabbit; conditions: Sub-acute repeat dose toxicity, Oral, Gavage/Intubation, dose end: 13 day
[10] = system: rat; conditions: Prenatal developmental toxicity study; sprague dawley; Oral; Gavage/Intubation; dose end: 18 GD; group: maternal; systemic / in life observation / body weight / body weight gain + systemic / in life observation / food consumption / food consumption
[11] = system: rabbit; conditions: Prenatal developmental toxicity study; Oral; Gavage/Intubation; dose end: 19 GD; group: maternal; reproductive / reproductive performance / aborted / aborted + systemic / in life observation / food consumption / food consumption + …
[12] = system: rat; conditions: Fertility (Segment I), Oral, Gavage/Intubation, dose end: 1 generation, group: parental
[13] = system: rat; conditions: Multigenerational reproductive toxicity study; other; Oral; Feed; dose end: 3 generation; group: parental; systemic / in life observation / body weight / body weight
[14] = system: rat; conditions: Prenatal developmental toxicity study, sprague dawley, Oral, Gavage/Intubation, dose end: 15 GD
[15] = system: mouse; conditions: Carcinogenicity; cd1; Oral; Feed; dose end: 18 month; group: systemic; systemic / organ weight / liver / absolute + systemic / organ weight / liver / relative to body weight + systemic / pathology microscopic / …
[16] = system: dog; conditions: Chronic toxicity, beagle, Oral, Feed, dose end: 52 week, group: systemic
[17] = system: mouse; conditions: Carcinogenicity, cd1, Oral, Feed, dose end: 20 month, group: systemic
[18] = system: mouse; conditions: Carcinogenicity; other; Oral; Feed; dose end: 18 month; group: systemic; systemic / pathology microscopic / liver / hypertrophy + systemic / pathology microscopic / liver / necrosis
[19] = system: dog; conditions: Subchronic oral toxicity in nonrodent, beagle, Feed, dose end: 13 week, group: systemic, systemic / clinical chemistry / alanine aminotransferase (alt/sgpt) / alanine aminotransferase (alt/sgpt) + systemic / clinical chemistry / …
[20] = system: dog; conditions: Chronic toxicity; beagle; Oral; Feed; dose end: 52 week; group: systemic; systemic / organ weight / liver / absolute + systemic / organ weight / liver / relative to body weight
[21] = system: rat; conditions: Combined chronic toxicity/carcinogenicity; fischer; Oral; Feed; dose end: 104 week; group: systemic; systemic / hematology / methemoglobin / methemoglobin + systemic / pathology microscopic / kidney / mineralization + systemic / pathology …
[22] = system: rat; conditions: Prenatal developmental toxicity study, sprague dawley, Oral, Gavage/Intubation, dose end: 15 GD; remark: listed apart in the source
[23] = system: rat; conditions: Multigenerational reproductive toxicity study, sprague dawley, Oral, Feed, dose end: 2 generation
[24] = system: rabbit; conditions: Prenatal developmental toxicity study, new zealand white, Oral, Gavage/Intubation, dose end: 18 GD
[25] = system: rat; conditions: Subchronic oral toxicity in rodents, fischer, Feed, dose end: 84 day, group: systemic, systemic / clinical chemistry / thyroxine (t4) / thyroxine (t4)
[26] = system: mouse; conditions: Subchronic oral toxicity in rodents, cd1, Feed, dose end: 13 week, group: systemic, systemic / pathology microscopic / liver / cytomegaly + systemic / pathology microscopic / spleen / hematopoietic cell proliferation + …
[27] = group: offspring, developmental / offspring survival late / viability index / viability index
[28] = group: offspring, developmental / offspring survival late / viability index / viability index + systemic / in life observation / body weight / offspring (pup…
[29] = group: parental, systemic / organ weight / kidney / absolute
[30] = group: parental, systemic / organ weight / kidney / absolute + systemic / organ weight / kidney / relative to body weight + systemic / organ weight / liver…
[31] = systemic / urinalysis / sediment microscopic / epithelial cells
[32] = systemic / urinalysis / sediment microscopic / epithelial cells + systemic / organ weight / liver / relative to body weight
[33] = group: cholinesterase, cholinesterase / cholinesterase / cholinesterase / cholinesterase (che)
[34] = group: systemic, systemic / organ weight / liver / relative to body weight + systemic / clinical chemistry / [other] / [other] + systemic / in life …
[35] = systemic / organ weight / spleen / absolute + systemic / organ weight / liver / relative to body weight
[36] = group: maternal, reproductive / reproductive performance / estrous cycle / abnormal
[37] = group: parental, systemic / in life observation / food consumption / food consumption
[38] = group: maternal, reproductive / reproductive performance / aborted / aborted + reproductive / reproductive performance / resorptions / resorptions
[39] = group: systemic, systemic / in life observation / body weight / body weight gain + systemic / in life observation / food consumption / food consumption
[40] = systemic / in life observation / body weight / body weight + systemic / in life observation / food consumption / food consumption + systemic…
[41] = group: developmental, developmental / developmental malformation / bone / delayed ossification
[42] = group: maternal, systemic / in life observation / body weight / body weight gain
[43] = systemic / in life observation / body weight / body weight gain
[44] = systemic / pathology microscopic / eye / cataract
[45] = systemic / pathology microscopic / eye / cataract + systemic / hematology / erythrocyte (rbc) count differential / erythrocyte (rbc) + …
[46] = group: developmental, developmental / developmental malformation / bone / delayed ossification + developmental / developmental malformation / bone / full …
[47] = group: maternal, systemic / in life observation / body weight / body weight gain + systemic / in life observation / body weight / body weight + systemic / in…
[48] = group: offspring, developmental / offspring survival late / viability index / viability index + reproductive / offspring survival early / offspring survival …
[49] = group: parental, systemic / pathology microscopic / liver / congestion
[50] = group: developmental, developmental / developmental malformation / bone / full supernumerary + developmental / developmental malformation / bone / supernumerary
[51] = group: developmental, developmental / developmental malformation / bone / full supernumerary + developmental / developmental malformation / bone / supernumerary…
[52] = group: maternal, systemic / pathology microscopic / liver / hypertrophy + systemic / pathology microscopic / liver / vacuolization
[53] = group: maternal, systemic / pathology microscopic / liver / hypertrophy + systemic / pathology microscopic / liver / vacuolization + systemic / in life …
[54] = total + systemic / clinical chemistry / phosphorus / phosphorus + systemic…

## CCCCCOC(=O)COc1cc(N2C(=O)C3=C(CCCC3)C2=O)c(F)cc1Cl [Flumiclorac-pentyl]
[1]; [27]
  LEL: 829 mg/kg/day
  LOAEL: 829 mg/kg/day
[1]; [28]
  NEL: 18 mg/kg/day
  NOAEL: 18 mg/kg/day
[1]; [29]
  LEL: 18 mg/kg/day
  NEL: < 18 mg/kg/day
[1]; [30]
  LOAEL: 829 mg/kg/day
  NOAEL: 18 mg/kg/day
[2]
  LEL: 308 mg/kg/day
  LOAEL: 308 mg/kg/day
  NEL: 31.5 mg/kg/day
  NOAEL: 31.5 mg/kg/day
[3]
  LEL: 1000 mg/kg/day
  LOAEL: 1000 mg/kg/day
  NEL: 100 mg/kg/day
  NOAEL: 100 mg/kg/day
[4]; [31]
  LEL: 659 mg/kg/day
  LOAEL: 659 mg/kg/day
[4]; [32]
  NEL: 64.9 mg/kg/day
  NOAEL: 64.9 mg/kg/day
[5]; [33]
  LEL: 73.8 mg/kg/day
  LOAEL: 73.8 mg/kg/day
  NEL: 7.4 mg/kg/day
  NOAEL: 7.4 mg/kg/day
[5]; group: systemic, systemic / clinical chemistry / [other] / [other] + systemic / in life observation / food consumption / food efficiency + systemic / in life…
  LEL: 664 mg/kg/day
[5]; group: systemic, systemic / organ weight / liver / relative to body weight
  LOAEL: 1360 mg/kg/day
[5]; [34]
  NEL: 67 mg/kg/day
  NOAEL: 664 mg/kg/day
[6]; systemic / organ weight / liver / relative to body weight + systemic / organ weight / kidney / absolute + systemic / organ weight / liver / …
  LOAEL: 360 mg/kg/day
[6]; [35]
  LEL: 3.5 mg/kg/day
  NEL: < 3.5 mg/kg/day
[6]; systemic / organ weight / spleen / absolute + systemic / organ weight / liver / relative to body weight + systemic / organ weight / kidney…
  NOAEL: 35.4 mg/kg/day
[7]
  LEL: 100 mg/kg/day
  LOAEL: 100 mg/kg/day
  NEL: 10 mg/kg/day
  NOAEL: 10 mg/kg/day

## CNCc1ccc(NC(=O)c2c[nH]c3c2C(=O)CCC3)cc1
[8]; [36]
  LEL: 250 mg/kg/day
  LOAEL: > 1000 mg/kg/day
  NEL: 25 mg/kg/day
  NOAEL: ≥ 1000 mg/kg/day
[8]; [37]
  LEL: 1000 mg/kg/day
  LOAEL: > 1000 mg/kg/day
  NEL: 250 mg/kg/day
  NOAEL: ≥ 1000 mg/kg/day
[9]; [38]
  LEL: 300 mg/kg/day
  LOAEL: > 300 mg/kg/day
  NEL: 150 mg/kg/day
  NOAEL: ≥ 300 mg/kg/day
[9]; [39]
  LEL: 300 mg/kg/day
  LOAEL: > 300 mg/kg/day
  NEL: 150 mg/kg/day
  NOAEL: ≥ 300 mg/kg/day
[10]
  LEL: 250 mg/kg/day
  LOAEL: > 1000 mg/kg/day
  NEL: 25 mg/kg/day
  NOAEL: ≥ 1000 mg/kg/day
[11]
  LEL: 300 mg/kg/day
  LOAEL: > 300 mg/kg/day
  NEL: 100 mg/kg/day
  NOAEL: ≥ 300 mg/kg/day
[12]; [40]
  LOAEL: > 1000 mg/kg/day
  NEL: 25 mg/kg/day
  NOAEL: ≥ 1000 mg/kg/day
[12]; systemic / in life observation / body weight / body weight + systemic / pathology gross / intestine large / dilatation
  LEL: 250 mg/kg/day

## O=C(O)Cc1c(Cl)ccc(Cl)c1Cl [Chlorfenac]
[13]
  LEL: 125 mg/kg/day
  LOAEL: > 125 mg/kg/day
  NEL: 25 mg/kg/day
  NOAEL: ≥ 125 mg/kg/day
[14]; [41]
  LEL: 300 mg/kg/day
  LOAEL: > 300 mg/kg/day
  NEL: 60 mg/kg/day
  NOAEL: ≥ 300 mg/kg/day
[14]; [42]
  LEL: 300 mg/kg/day
  LOAEL: > 300 mg/kg/day
  NEL: 60 mg/kg/day
  NOAEL: ≥ 300 mg/kg/day
[15]
  LEL: 600 mg/kg/day
  LOAEL: > 600 mg/kg/day
  NEL: 300 mg/kg/day
  NOAEL: ≥ 600 mg/kg/day

## CC(C)N(C(=O)COc1nnc(C(F)(F)F)s1)c1ccc(F)cc1 [Flufenacet]
[16]; systemic / clinical chemistry / alanine aminotransferase (alt/sgpt) / alanine aminotransferase (alt/sgpt) + systemic / clinical chemistry / …
  LOAEL: 26.8 mg/kg/day
[16]; [43]
  LEL: 1.14 mg/kg/day
  NEL: < 1.14 mg/kg/day
[16]; systemic / in life observation / body weight / body weight gain + systemic / clinical chemistry / alanine aminotransferase (alt/sgpt) / …
  NOAEL: 1.14 mg/kg/day
[17]; [44]
  LOAEL: 7.4 mg/kg/day
  NOAEL: < 7.4 mg/kg/day
[17]; [45]
  LEL: 7.4 mg/kg/day
  NEL: < 7.4 mg/kg/day
[18]
  LEL: 2.1 mg/kg/day
  LOAEL: 2.1 mg/kg/day
  NEL: < 2.1 mg/kg/day
  NOAEL: < 2.1 mg/kg/day
[19]
  LEL: 1.67 mg/kg/day
  LOAEL: 6.9 mg/kg/day
  NEL: < 1.67 mg/kg/day
  NOAEL: 1.7 mg/kg/day
[20]
  LEL: 17.3 mg/kg/day
  LOAEL: 17.3 mg/kg/day
  NEL: 3.15 mg/kg/day
  NOAEL: 3.15 mg/kg/day
[21]
  LEL: 1.2 mg/kg/day
  LOAEL: 1.2 mg/kg/day
  NEL: < 1.2 mg/kg/day
  NOAEL: < 1.2 mg/kg/day
[22]; [46]
  LEL: 125 mg/kg/day
  LOAEL: 125 mg/kg/day
  NEL: 25 mg/kg/day
  NOAEL: 25 mg/kg/day
[22]; [42]
  LOAEL: 125 mg/kg/day
[22]; [47]
  LEL: 125 mg/kg/day
  NEL: 25 mg/kg/day
  NOAEL: 25 mg/kg/day
[23]; [48]
  LEL: 7.3 mg/kg/day
  LOAEL: 7.3 mg/kg/day
  NEL: 1.4 mg/kg/day
  NOAEL: 1.4 mg/kg/day
[23]; [49]
  LEL: 1.4 mg/kg/day
  NEL: < 1.4 mg/kg/day
[23]; group: parental, systemic / pathology microscopic / liver / hypertrophy
  LOAEL: 7.3 mg/kg/day
[23]; group: parental, systemic / pathology microscopic / liver / hypertrophy + systemic / pathology microscopic / liver / congestion
  NOAEL: 1.4 mg/kg/day
[24]; [50]
  LEL: 125 mg/kg/day
  LOAEL: 125 mg/kg/day
[24]; [51]
  NEL: 25 mg/kg/day
  NOAEL: 25 mg/kg/day
[24]; [52]
  LEL: 25 mg/kg/day
  LOAEL: 25 mg/kg/day
[24]; [53]
  NEL: 5 mg/kg/day
  NOAEL: 5 mg/kg/day
[25]; total
  LOAEL: 6 mg/kg/day
  NOAEL: < 6 mg/kg/day
[25]; [54]
  LEL: 6 mg/kg/day
  NEL: < 6 mg/kg/day
[26]
  LEL: 64.2 mg/kg/day
  LOAEL: 64.2 mg/kg/day
  NEL: 18.2 mg/kg/day
  NOAEL: 18.2 mg/kg/day
